Earlier results on 1 compound are cited in patent US9029312B2, “Compositions for cleaning applicators for hair removal compositions” (priority 2012, dated 2015).

The conditions of data set [1]: Bhargava & Leonard 1996.

Turning to `Oc1cc(Cl)ccc1Oc1ccc(Cl)cc1Cl` [Triclosan, 5-Chloro-2-(2,4-dichlorophenoxy) phenol], the “solubility in mineral oil” value is listed as “relatively high solubility in mineral oil”. In data set [1], the “carcinogenic, mutagenic or teratogenic effects” value is reported as “not found to have any carcinogenic, mutagenic or teratogenic effects”; the “toxicity to humans and other mammals” value is listed as “relatively non-toxic”.
